Reference: patent US7563570B2, “Method of determining a chemotherapeutic regimen for non small cell lung cancer based on BRCA1 expression” (Pangaea Biotech, priority 2004, dated 2009)

Legend:
[1] = test system: HCC1937 breast cancer cell line; settings: HCC1937, BRCA1 reconstituted vs BRCA1-negative; cited from earlier work
[2] = test system: SKOV-3 human ovarian cancer cell line; settings: cited from earlier work
breast cancer cell line = settings: BRCA1 mRNA determined by RT-QPCR; cited from earlier work
[3] = test system: Mouse models carrying conditional disruption of BRCA1; settings: cited from earlier work
[4] = test system: non-small-cell lung cancer (NSCLC) patients; test: Neoadjuvant gemcitabine/cisplatin followed by surgery in stage IIB, IIIA and IIIB NSCLC patients, outcome by quartile of tumor BRCA1 mRNA expression; assay type: in vivo, human
Procedure: In all patients, neoadjuvant chemotherapy was indicated after evaluation by a thoracic surgeon, a radiologist, a medical oncologist, and a radiation oncologist. Patients received three cycles of neoadjuvant chemotherapy; 51 received cisplatin 100 mg/m^2 day 1 plus gemcitabine 1250 mg/m^2 days 1 and 8 every 21 days, and four received carboplatin AUC=5 day 1 plus gemcitabine 1000 mg/m^2 days 1 and 8 every 21 days. A thoracotomy was performed within four to five weeks after the last chemotherapy cycle; the surgical procedure was based on the extent of tumor at the time of the initial presentation.
We examined BRCA1 gene expression in formalin-fixed, paraffin-embedded surgical resected specimens from the 55 patients as previously described: Specht K, et al. (2001) Am. J. Pathol., 158, 419-429: “Quantitative gene expression analysis in microdissected archival formalin-fixed and paraffin-embedded tumor tissue”; Krafft A E, et al. (1997) Mol. Diagn., 3, 217-230: “Optimization of the isolation and amplification of RNA from formalin fixed, paraffin-embedded tissue: The Armed Forces Institute of Pathology experience and literature review”. After standard tissue sample deparaffinization using xylene and alcohols, samples were lysed in a tris-chloride, EDTA, sodium dodecyl sulphate (SDS) and proteinase K containing buffer. RNA was then extracted with phenol-chloroform-isoamyl alcohol followed by precipitation with isopropanol in the presence of glycogen and sodium acetate. RNA was resuspended in RNA storage solution (Ambion Inc; Austin Tex., USA) and treated with DNAse I to avoid DNA contamination. cDNA was synthesized using M-MLV retrotranscriptase enzyme. Template cDNA was added to Taqman Universal Master Mix (AB; Applied Biosystems, Foster City, Calif., USA) in a 12.5-μl reaction with specific primers and probe for each gene. The primer and probe sets were designed using Primer Express 2.0 Software (AB). Quantification of gene expression was performed using the ABI Prism 7900HT Sequence Detection System (AB). Primers and probe for BRCA1 mRNA expression analysis were designed according to the Ref Seq NM_007294 (www.ncbi.nlm.nih.gov/LocusLink). Forward primer is located in exon 8 (position 4292 bp to 4317 bp), reverse primer in exon 9 (position 4336 bp to 4360 bp), and probe in the exon 8/9 junction (position 4313 bp to 4333 bp). The PCR product size generated with these primers was 69 bp. The primers and 5′ labeled fluorescent reporter dye (6FAM) probe were as follows: β-actin: forward 5′ TGA GCG CGG CTA CAG CTT 3′, reverse 5′ TCCTTAATGTCACGCACGATTT 3′, probe 5′ ACC ACC ACG GCC GAG CGG 3′; BRCA1: forward 5′GGCTATCCTCTCAGAGTGACATTTTA 3′, reverse 5′ GCTTTATCAGGTTATGTTGCATGGT 3′, probe 5′ CCA CTC AGC AGA GGG 3′.
Relative gene expression quantification was calculated according to the comparative Ct method using β-actin as an endogenous control and commercial RNA controls (Stratagene, La Jolla, Calif.) as calibrators. Final results, were determined as follows: 2^−(ΔCt sample−ΔCt calibrator), where ΔCT values of the calibrator and sample are determined by subtracting the CT value of the target gene from the value of the β-actin gene. In all experiments, only triplicates with a standard deviation (SD) of the Ct value <0.20 were accepted. In addition, for each sample analyzed, a retrotranscriptase minus control was run in the same plate to assure lack of genomic DNA contamination (FIG. 1).
In order to provide an easily interpretable evaluation of the effect of BRCA1 mRNA expression, gene expression values were divided into quartiles. Interpatient variation coefficients were calculated to assess similarities between quartiles. Hazard ratios were calculated with the univariate Cox model, and comparison between Kaplan-Meier survival curves was performed with the log-rank test. […]

[5] = bottom quartile of BRCA1 levels
[6] = bottom quartile of BRCA1 levels, listed as Gemcitabine/Cisplatin
[7] = middle quartiles of BRCA1 levels
[8] = middle quartiles of BRCA1 levels, listed as Gemcitabine/Cisplatin
[9] = top quartile of BRCA1 levels, listed as Gemcitabine/Cisplatin

Compound: N.N.[Cl][Pt][Cl] [cisplatin, cis-diaminodichloroplatinum]
- Increase in resistance on reconstitution of wild-type BRCA1 [1]: 20 fold
- Change of drug resistance on upregulation of BRCA1 expression [2]: increased cisplatin resistance
- Change of drug sensitivity on decreased BRCA1 mRNA expression (breast cancer cell line): greater sensitivity

Compound: COc1cccc2c1C(=O)c1c(O)c3c(c(O)c1C2=O)C[C@@](O)(C(=O)CO)C[C@@H]3O[C@H]1C[C@H](N)[C@H](O)[C@H](C)O1 [doxorubicin]
- Sensitivity of BRCA1-disrupted mouse models [3]: highly sensitive

Compound: COc1cc([C@@H]2c3cc4c(cc3[C@@H](O[C@@H]3O[C@@H]5CO[C@@H](C)O[C@H]5[C@H](O)[C@H]3O)[C@H]3COC(=O)[C@H]23)OCO4)cc(OC)c1O [etoposide]
- Change of drug sensitivity on decreased BRCA1 mRNA expression (breast cancer cell line): greater sensitivity

Compound: CC(=O)O[C@H]1C(=O)[C@@]2(C)[C@H]([C@H](OC(=O)c3ccccc3)[C@]3(O)C[C@H](OC(=O)[C@H](O)[C@@H](NC(=O)c4ccccc4)c4ccccc4)C(C)=C1C3(C)C)[C@]1(OC(C)=O)CO[C@@H]1C[C@@H]2O [paclitaxel]
- Change of drug sensitivity on decreased BRCA1 mRNA expression (breast cancer cell line): greater resistance

Compound: CC/C(=C(\c1ccccc1)c1ccc(OCCN(C)C)cc1)c1ccccc1 [tamoxifen]
- Sensitivity of BRCA1-disrupted mouse models [3]: resistant

Compound: CC[C@]1(O)C[C@H]2CN(CCc3c([nH]c4ccccc34)[C@@](C(=O)OC)(c3cc4c(cc3OC)N(C=O)[C@H]3[C@@](O)(C(=O)OC)[C@H](OC(C)=O)[C@]5(CC)C=CCN6CC[C@]43[C@@H]65)C2)C1 [vincristine]
- Change of drug sensitivity on decreased BRCA1 mRNA expression (breast cancer cell line): greater resistance

Compound: gemcitabine/cisplatin
- Patients who attained a complete pathologic response (T0N0) ([4]; all in the bottom quartile of BRCA1 levels): Five
- Median survival ([4]; all patients): 37.8 months
- Risk of death, hazard ratio ([4]; bottom quartile compared to top quartile, unstratified): 0.187
- Radiographic Response: Partial Response [4, 5]: 66.7%
- Radiographic Response: Stable Disease [4, 5]: (33.3) %
- Surgical Results: Complete Resection [4, 5]: 93.3%
- Radiographic Response: Progressive Disease ([4]; bottom quartile of BRCA1 levels, number of patients): 0 N
- Radiographic Response: Partial Response [4, 6]: (66.7) %
- Surgical Results: Complete Resection [4, 6]: (93.3) %
- Median survival ([4]; bottom quartile of BRCA1 mRNA levels (0.28-0.61), 15 patients): not reached
- Radiographic Response: Partial Response [4, 7]: 57.1%
- Radiographic Response: Progressive Disease [4, 7]: (7.1) %
- Radiographic Response: Stable Disease [4, 7]: (35.7) %
- Surgical Results: Complete Resection [4, 7]: 78.6%
- Radiographic Response: Partial Response [4, 8]: (57.1) %
- Surgical Results: Complete Resection [4, 8]: (78.6) %
- Median survival ([4]; patients who underwent lobectomy): 51.9 months
- Median survival ([4]; patients who underwent pneumonectomy): 25.8 months
- Risk of death, hazard ratio ([4]; stratified by clinical stage, bottom quartile compared to top quartile): 0.220
- Risk of death, hazard ratio ([4]; stratified by clinical stage, two middle quartiles compared to top quartile): 0.430
- Risk of death, hazard ratio ([4]; stratified by pathologic stage, bottom quartile compared to top quartile): 0.206
- Risk of death, hazard ratio ([4]; stratified by pathologic stage, two middle quartiles compared to top quartile): 0.294
- Radiographic Response: Partial Response ([4]; top quartile of BRCA1 levels): 58.3%
- Radiographic Response: Progressive Disease ([4]; top quartile of BRCA1 levels): (8.3) %
- Radiographic Response: Stable Disease ([4]; top quartile of BRCA1 levels): (33.3) %
- Surgical Results: Complete Resection ([4]; top quartile of BRCA1 levels): 83.3%
- Radiographic Response: Partial Response [4, 9]: (58.3) %
- Surgical Results: Complete Resection [4, 9]: (83.3) %
- Median survival ([4]; top quartile of BRCA1 mRNA levels (2.45-10.43), 12 patients): 12.7 months
- Risk of death, hazard ratio ([4]; two middle quartiles compared to top quartile, unstratified): 0.382
- Median survival ([4]; two middle quartiles of BRCA1 mRNA levels (0.65-2.37), 28 patients): 37.8 months
